Like-named read-outs stand apart in the source and are kept apart here.
Columns and labels:
[1] = rat, in vivo, po, 200 mg/kg
MCF-7 human breast tumor = experiment: MCF-7 human breast cancer xenograft model; type: in vivo, Nude mice; details: 0.5% w/v in drinking water; for animals with partial tumor shrinkage: Day 90, eight animals per group; for mean partial tumor shrinkage: Day 90, in the animals with shrinkage; for tumor growth inhibition: Day 90, in the animals without shrinkage
Procedure: FIG. 11 Mean Tumor weight of MCF-7 human breast tumors in nude […].
Nude mice were implanted with the estrogen-dependent human breast tumor line, MCF-7 (ATCC #HTB22). […] The experiment was terminated on Day 90 (when control tumors had reached a size of 400 mg.). Mice were weighed twice weekly, and tumor measurements were taken by calipers twice weekly, starting at time of DFMO administration (Day 1). Tumor measurements were converted to mg tumor weight by the formula, L^2×W/2.

[2] = system: MCF-7, LNCaP, PC-3, HT-29 cancer cell lines; experiment: Induction of apoptosis in cell lines (DNA fragmentation ELISA, Hoechst staining); type: cell-based, human; details: DFMO forms at 1 and 10 uM
Procedure: Each of the three forms of DFMO were tested at two concentrations (1 and 10 uM). Adriamycin and calcium chloride were used as positive controls. Apoptosis was assayed using a multi-well plate DNA fragmentation assay according to the Cellular DNA Fragmentation ELISA kit (Boehringer Mannheim Biochemicals, Cat. #1585-045) and Hoechst staining.

[3] = Plasma levels in rats after single oral dose
[4] = rats, 200 mg/kg/day to 1.2 g/kg/day by intubation, up to eight weeks
Procedure: Twenty-four Long Evans pigmented rats (250-275 g) were acquired from Harlan Sprague Dawley (Indianapolis, Ind.) and thirty-six pigmented guinea pigs obtained from Kuiper Rabbit Ranch (Gary, Ind.) at an initial weight of 200-250 g and housed in University of Oklahoma Health Sciences Center animal facility. Subjects were housed under a 12:12 hr light dark cycle with free access to food and water with a room temperature controlled at 21° C.
Twenty-four animals were randomly placed into 8 groups of three subjects each. […] Four additional animals were randomly placed into 2 subsequent groups: 400 and 600 mg/kg/day by gavage twice a day (5 days/week) for 8 weeks. […] Weight measurements were taken daily (5 days/week) with assessment of auditory function performed at the conclusion of dosing.

tumor putrescine levels = details: rat-tumor model, infusion; cited from earlier work
pigmented guinea pigs [5] = experiment: General toxicity in guinea pigs (mortality, weight gain), daily ip injection; type: in vivo, guinea pig
Excerpt: Daily weight measurements determined the injection volume.

pigmented guinea pigs [6] = system: pigmented guinea pigs
Procedure: Auditory thresholds were assessed in the 0.5 g/kg and 1 g/kg/day subjects at day 45 of dosing while the 2 g/kg/day subjects were evaluated at 22 days of dosing. […] Daily weight measurements determined the injection volume. Assessment of auditory function occurred at the conclusion of dosing.
Injections, determined by daily weight measurements, were made ip daily for 45 days.
Continuous tones were used for eliciting CM. Tone bursts were used to elicit the CAP.

[7] = system: hair cells of the basilar membrane; experiment: Histology of Organ of Corti surface preparations (SDH staining, hair cell damage); details: one guinea pig, 1 g/kg/day for 45 days; most apical 40% normal
Procedure: Surface preparations of the Organ of Corti were evaluated in a limited number of subjects. The animals were decapitated while deeply anesthetized after CAP and CM recording. Cochleae were removed immediately. Both the round and oval windows were opened and the apex of the cochlea was drilled open to facilitate perfusion. The cochleae were perfused with SDH (succinate dehydrogenase) incubative solution (0.05 M sodium succinate, 0.05 M phosphate buffer and 0.05% TetraNitro Blue Tetrazolium) and immersed in the solution for one h (37° C.). Then the cochleae were fixed with 10% formalin for at least 2 days. After fixation, the cochleae were decalcified in 10% EDTA solution (EthyleneDiamine Tetraacetic Acid) for 3 days or longer as needed. Cochlea microdissection was accomplished under a light microscope.
Locations along the surface of the basilar membrane were identified by percent distance from apex, and can be related to the physiological data because sound is encoded in a tonotopic fashion with the highest frequencies represented in the most basal portion of the cochlea.

## NCCC[C@@](N)(C(=O)O)C(F)F [D-DFMO, D enantiomer of difluoromethylornithine]
[1]
  plasma level: 102 µg/mL
MCF-7 human breast tumor
  animals with partial tumor shrinkage: four of eight
  mean partial tumor shrinkage: 62.6%
  tumor growth inhibition: 84.7%
MCF-7 human breast tumor; eight animals per group
  toxic death: two animals experienced toxic death

## COc1cccc2c1C(=O)c1c(O)c3c(c(O)c1C2=O)C[C@@](O)(C(=O)CO)C[C@@H]3O[C@H]1C[C@H](N)[C@H](O)[C@H](C)O1 [adriamycin]
[2]
  apoptosis and cytotoxicity: cytotoxic as well as apoptotic

## (−)-4-difluoromethyl-ornithine [L-DFMO]
MCF-7 human breast tumor
  animals with partial tumor shrinkage: seven of eight
  mean partial tumor shrinkage: 50.0%
  tumor growth inhibition: 5.5%
[3]; 200 mg/kg orally, one to two hours
  plasma level: 45 µg/mL

## NCCCC(N)(C(=O)O)C(F)F (racemic) [D,L-DFMO, 2-(Difluoromethyl)-DL-ornithine]
[4]
  weight change: does not produce any significant weight change
MCF-7 human breast tumor
  animals with partial tumor shrinkage: seven of eight
  mean partial tumor shrinkage: 60.4%
  tumor growth inhibition: 99.2%
Tumor putrescine levels
  decrease in tumor putrescine levels: 90%
Pigmented guinea pigs [5]; 500 mg/kg/day ip, 45 days
  systemic toxicity (growth rate): no apparent signs of systemic toxicity
Pigmented guinea pigs [5]; 1 g/kg/day ip, 45 days
  weight gain: appear to diverge from the controls during the last 10 days
Pigmented guinea pigs [5]; 1 g/kg/day ip, full 6 week dosing regimen
  subjects that did not survive: two of the five
Pigmented guinea pigs [5]; 2 g/kg/day ip, to day 22
  weight gain: effectively blocked
Pigmented guinea pigs [5]; 3 g/kg/day ip, within the first six days
  animals dying: 100%
Pigmented guinea pigs [6]; 500 mg/kg/day ip, day 45
  average loss of auditory sensitivity (CAP), 20 to 40 kHz: 7.1 dB
Pigmented guinea pigs [6]; 500 mg/kg/day ip, day 45, all frequencies
  CAP threshold elevation, average: 9 dB
Pigmented guinea pigs [6]; 500 mg/kg/day to 2 g/kg/day ip
  effect on CM sensitivity: not effected
Pigmented guinea pigs [6]; 1 g/kg/day ip, day 45
  average loss of auditory sensitivity (CAP), 20 to 40 kHz: 17 dB
Pigmented guinea pigs [6]; 2 g/kg/day ip, 22 days
  CAP threshold average loss across all frequencies: 14 dB
  average loss of auditory sensitivity (CAP), 20 to 40 kHz: 30 dB
[3]; 400 mg/kg orally
  maximum plasma level: 109 µg/mL
[7]
  portion of basilar membrane showing hair cell damage: 60%

— patent publication US6602910B2, “D-enantiomer of DFMO and methods of use therefor” (priority 2000, dated 2003)
